Results taken from patent US20180015088A1, “SITE SPECIFIC DOSING OF A BTK INHIBITOR” (Principia Biopharma Inc., priority 2014, published 2018).
Like-named read-outs stand apart in the source and are kept apart here.

Columns and labels:
[1] = Solubility of Compound (I) at low pH; assay type: physicochemical
[2] = Site specific gastrointestinal dosing (oral gavage, intraduodenal, intrajejunal) in rats, plasma AUC; assay type: in vivo, Wister-Hans rats; conditions: for AUC: Wister-Hans, rat, plasma
Protocol: Compound (I) was dosed in 10 mg/mL aqueous citrate solution at 20 mg/kg to Wister-Hans rats. Free base of Compound (I) was dissolved in aqueous solution of citric acid (containing 0.5 equivalents of anhydrous citiric acid) . The experiment was repeated 3 times each with 2 separate arms, and one oral (PO) gavage arm was included in each study. Intra-jejunal (IJ) and intra-duodenal (ID) dosing was done in cannulated rats. In the first study, there was about 40-fold increase in the AUC for the IJ-dosed group compared to the PO group, and the major metabolite, present in the PO arm was reduced by 20 fold in the IJ-group.

[3] = system: intestinal tissue (stomach, duodenum, jejunum, ileum, colon); experiment: In vitro permeation in Ussing chambers through different intestinal regions of rat; assay type: in vitro ADME, Sprague-Drawley rats; conditions: 100 uM, mucosal to serosal, distal regions compared to stomach or duodenum, FIG. 7
Protocol: Reagents: 10× Krebs-Ringer buffer (KRB) comprised of 1.26M NaCl (Promega, Madison, Wis.), 25mM KCl, 250 mM NaHCO3, 12 mM NaH2PO4, 12 mM MgCl2, 25 mM CaCl2 and 18 g/L D-Glucose (all from Sigma Aldrich, St. Louis, Mo.) prepared and stored individually to prevent crystallization. Dilute to 1× working concentration prior to use and pH adjusted with either carbogen perfusion for 20 mins to pH 7.4 (oxygenated KRB) or 1M HCl (Alfar Aesar, Ward Hill, Mass.) to pH 3.5, 6.5 or 7.4. 0.1% Phenol red, Antipyrine and Atenolol were purchased from Sigma Aldrich, St. Louis, Mo.
Harvest and preparation of intestinal tissue: 4 to 9 month old adult female virgin Sprague-Drawley rats (Harlan Laboratories, Livermore, Calif.) were acclimated in-house for a minimum of 3 days prior to experimentation. Adolescent and geriatric animals should be avoided to prevent age-related differences in gastro-intestinal morphology and function. Animals were housed under IACUC-approved husbandry protocols including 12-hour light and 12-hour dark cycles, and allowed standard chow and water ad libitum. Tissue harvest should be performed one animal at a time to maintain tissue viability. […]

[4] = Solubility of the salt in water at ambient temperature; assay type: physicochemical
Protocol: To the solution of (R)-2-[3-[4-amino-3-(2-fluoro-4-phenoxy-phenyl)pyrazolo[3,4-d]pyrimidin-1-yl]piperidine-1-carbonyl]-4-methyl-4-[4-(oxetan-3-yl)piperazin-1-yl]pent-2-enenitrile (having about 9/1 E/Z ratio) (4.2 g) in EtOAc (60 mL, 15 vol) was added sulfuric acid (0.31 g, 0.17 mL, 0.5 eq) in EtOAc (20 mL, 5 vol) at ambient temperature. The suspension was stirred at ambient temperature for ˜2 hr and then 40° C. for 4 hr and then at ambient temperature for at least 1 hr. After filtration and drying at ambient temperature under vacuum, 1.5 g of white powder was obtained. Solubility of the hemi-sulfate at ambient temperature was >100 mg/mL in water.

Structure (SMILES) | solubility at low pH [1] | increase in AUC, ID compared to oral gavage ([2]; ID vs PO) | metabolic stability by site of administration ([2]; IJ dosing compared to oral gavage) | AUC ([2]; 20 mg/kg, intraduodenum cannula, 20 mg/kg, aqueous citrate solution, read-out: AUC, intraduodenal (ID) dosing) [ng·h/mL] | AUC ([2]; other: intrajejunal, 20 mg/kg, intrajejunum cannula, 20 mg/kg, aqueous citrate solution, read-out: AUC, intrajejunal (IJ) dosing) [ng·h/mL] | AUC ([2]; po, 20 mg/kg, oral (PO) gavage, 20 mg/kg, 10 mg/mL aqueous citrate solution, read-out: AUC, oral gavage) [ng·h/mL] | AUC, intrajejunal (IJ) dosing ([2]; intrajejunum cannula, 20 mg/kg, aqueous citrate solution) | AUC, oral gavage ([2]; oral (PO) gavage, 20 mg/kg, 10 mg/mL aqueous citrate solution) [ng·h/mL] | permeability (Papp) by region of the GI tract [3] | solubility [4] [mg/mL]
CC(C)(C=C(C#N)C(=O)N1CCCC(n2nc(-c3ccc(Oc4ccccc4)cc3F)c3c(N)ncnc32)C1)N1CCN(C2COC2)CC1 [Compound (I), (R)-2-[3-[4-amino-3-(2-fluoro-4-phenoxy-phenyl)pyrazolo[3,4-d]pyrimidin-1-yl]piperidine-1-carbonyl]-4-methyl-4-[4-(oxetan-3-yl)piperazin-1-yl]pent-2-enenitrile] | greater than 10 % (w/v) | approximately 2 fold | more metabolically stable | 1780 | 14400 | 668 to 1640 | 26,800 ng*hr/ml | 994 | statistically increased permeabilities | –
CC(C)(C=C(C#N)C(=O)N1CCC[C@@H](n2nc(-c3ccc(Oc4ccccc4)cc3F)c3c(N)ncnc32)C1)N1CCN(C2COC2)CC1 [hemi-sulfate, (R)-2-[3-[4-amino-3-(2-fluoro-4-phenoxy-phenyl)pyrazolo[3,4-d]pyrimidin-1-yl]piperidine-1-carbonyl]-4-methyl-4-[4-(oxetan-3-yl)piperazin-1-yl]pent-2-enenitrile] | – | – | – | – | – | – | – | – | – | > 100
